PubChem BioAssay AID2060895 (Molecular Pharmacology Branch, DTP, NCI, 2025)

Test system: PDC 899932-113-R3-J6 complex spheroid viability
Assay: Anticancer human tumor 899932-113-R3-J6-PDC patient-derived melanoma cell line growth inhibition [RAS]
Conditions: for IC50: curve of first compound; for viability, T/C: stronger effect = lower value; active = viability on the fitted dose curve at most 10% of control; inactive = the rest
Procedure, shortened: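 Agents were tested in combination matrices in half-log decrements from a top concentration at or near clinical Cmax (10 microM if undetermined). Targets were multi-cell spheroids of tumour lines plus HUVEC and MSC stromal cells.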

[1] = second compound 0.000949 µM, first compound 0.00316 µM
[2] = second compound 0.000949 µM, first compound 0.01 µM
[3] = second compound 0.000949 µM, first compound 0.0316 µM
[4] = second compound 0.000949 µM, first compound 0.1 µM
[5] = second compound 0.003 µM, first compound 0.00316 µM
[6] = second compound 0.003 µM, first compound 0.01 µM
[7] = second compound 0.003 µM, first compound 0.0316 µM
[8] = second compound 0.003 µM, first compound 0.1 µM
[9] = second compound 0.00949 µM, first compound 0.00316 µM
[10] = second compound 0.00949 µM, first compound 0.01 µM
[11] = second compound 0.00949 µM, first compound 0.0316 µM
[12] = second compound 0.00949 µM, first compound 0.1 µM
[13] = second compound 0.03 µM, first compound 0.00316 µM
[14] = second compound 0.03 µM, first compound 0.01 µM
[15] = second compound 0.03 µM, first compound 0.0316 µM
[16] = second compound 0.03 µM, first compound 0.1 µM
[17] = second compound 0.0949 µM, first compound 0.00316 µM
[18] = second compound 0.0949 µM, first compound 0.01 µM
[19] = second compound 0.0949 µM, first compound 0.0316 µM
[20] = second compound 0.0949 µM, first compound 0.1 µM
[21] = second compound 0.3 µM, first compound 0.00316 µM
[22] = second compound 0.3 µM, first compound 0.01 µM
[23] = second compound 0.3 µM, first compound 0.0316 µM
[24] = second compound 0.3 µM, first compound 0.1 µM
[25] = second compound 0.000949 µM, first compound 0.316 µM
[26] = second compound 0.000949 µM, first compound 1 µM
[27] = second compound 0.000949 µM, first compound 3.16 µM
[28] = second compound 0.000949 µM, first compound 10 µM
[29] = second compound 0.003 µM, first compound 0.316 µM
[30] = second compound 0.003 µM, first compound 1 µM
[31] = second compound 0.003 µM, first compound 3.16 µM
[32] = second compound 0.003 µM, first compound 10 µM
[33] = second compound 0.00949 µM, first compound 0.316 µM
[34] = second compound 0.00949 µM, first compound 1 µM
[35] = second compound 0.00949 µM, first compound 3.16 µM
[36] = second compound 0.00949 µM, first compound 10 µM
[37] = second compound 0.03 µM, first compound 0.316 µM
[38] = second compound 0.03 µM, first compound 1 µM
[39] = second compound 0.03 µM, first compound 3.16 µM
[40] = second compound 0.03 µM, first compound 10 µM
[41] = second compound 0.0949 µM, first compound 0.316 µM
[42] = second compound 0.0949 µM, first compound 1 µM
[43] = second compound 0.0949 µM, first compound 3.16 µM
[44] = second compound 0.0949 µM, first compound 10 µM
[45] = second compound 0.3 µM, first compound 0.316 µM
[46] = second compound 0.3 µM, first compound 1 µM
[47] = second compound 0.3 µM, first compound 3.16 µM
[48] = second compound 0.3 µM, first compound 10 µM
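Throughout, for viability, T/C: spheroids exposed to agents for seven days before readout; 100% = DMSO vehicle control wells.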

CC(C)n1nc(-c2ccc3oc(N)nc3c2)c2c(N)ncnc21 + CCn1c(-c2cccnc2C(C)OC)c2c3cc(ccc31)N1CCOC(CC(NC(=O)C(C(C)C)N(C)C(=O)C3(F)CCN(C(=O)C#CC(C)(C)N(C)C)CC3)C(=O)N3CCCC(N3)C(=O)OCC(C)(C)C2)C1
> 100 nM: IC50 (second compound 0.000949 µM) | IC50 (second compound 0.003 µM) | IC50 (second compound 0.00949 µM) | IC50 (second compound 0.03 µM) | IC50 (second compound 0.0949 µM) | IC50 (second compound 0.3 µM)
inactive: viability, T/C (second compound 0.000949 µM, first compound 0.000316 µM) 107% | viability, T/C (second compound 0.000949 µM, first compound 0.001 µM) 97.1% | viability, T/C [1] 101% | viability, T/C [2] 85% | viability, T/C [3] 60.3% | viability, T/C [4] 100% | viability, T/C (second compound 0.003 µM, first compound 0.000316 µM) 92.3% | viability, T/C (second compound 0.003 µM, first compound 0.001 µM) 107% | viability, T/C [5] 96.7% | viability, T/C [6] 82% | viability, T/C [7] 65% | viability, T/C [8] 102% | viability, T/C (second compound 0.00949 µM, first compound 0.000316 µM) 105% | viability, T/C (second compound 0.00949 µM, first compound 0.001 µM) 100% | viability, T/C [9] 92.5% | viability, T/C [10] 85.6% | viability, T/C [11] 65.5% | viability, T/C [12] 100% | viability, T/C (second compound 0.03 µM, first compound 0.000316 µM) 104% | viability, T/C (second compound 0.03 µM, first compound 0.001 µM) 98.5% | viability, T/C [13] 89.3% | viability, T/C [14] 86.1% | viability, T/C [15] 61% | viability, T/C [16] 94.3% | viability, T/C (second compound 0.0949 µM, first compound 0.000316 µM) 95.2% | viability, T/C (second compound 0.0949 µM, first compound 0.001 µM) 93.5% | viability, T/C [17] 91.3% | viability, T/C [18] 76.7% | viability, T/C [19] 61.1% | viability, T/C [20] 93.1% | viability, T/C (second compound 0.3 µM, first compound 0.000316 µM) 86.7% | viability, T/C (second compound 0.3 µM, first compound 0.001 µM) 80.1% | viability, T/C [21] 75.6% | viability, T/C [22] 57.9% | viability, T/C [23] 51.2% | viability, T/C [24] 92.9%

CC1(O)CCCC1n1c(=O)c(C(F)F)cc2cnc(NC3CCN(S(C)(=O)=O)CC3)nc21 (stereo not drawn) + CCn1c(-c2cccnc2C(C)OC)c2c3cc(ccc31)N1CCOC(CC(NC(=O)C(C(C)C)N(C)C(=O)C3(F)CCN(C(=O)C#CC(C)(C)N(C)C)CC3)C(=O)N3CCCC(N3)C(=O)OCC(C)(C)C2)C1
3730 nM: IC50 (second compound 0.000949 µM)
3410 nM: IC50 (second compound 0.3 µM)
2840 nM: IC50 (second compound 0.00949 µM)
3710 nM: IC50 (second compound 0.003 µM)
inactive: viability, T/C [3] 98.1% | viability, T/C [4] 86.7% | viability, T/C [25] 72.3% | viability, T/C [26] 68.8% | viability, T/C [27] 56.8% | viability, T/C [28] 33.6% | viability, T/C [7] 99.8% | viability, T/C [8] 83% | viability, T/C [29] 71.6% | viability, T/C [30] 69.7% | viability, T/C [31] 59% | viability, T/C [32] 32.3% | viability, T/C [11] 107% | viability, T/C [12] 84.5% | viability, T/C [33] 69.7% | viability, T/C [34] 63.4% | viability, T/C [35] 55.9% | viability, T/C [36] 32.9% | viability, T/C [15] 110% | viability, T/C [16] 79.9% | viability, T/C [37] 69.6% | viability, T/C [38] 70.1% | viability, T/C [39] 59.7% | viability, T/C [40] 32.3% | viability, T/C [19] 94% | viability, T/C [20] 80.2% | viability, T/C [41] 66.3% | viability, T/C [42] 64.8% | viability, T/C [43] 55.6% | viability, T/C [44] 27% | viability, T/C [23] 88.5% | viability, T/C [24] 77.8% | viability, T/C [45] 69.3% | viability, T/C [46] 63.7% | viability, T/C [47] 59.6% | viability, T/C [48] 23.1%
3470 nM: IC50 (second compound 0.03 µM)
2710 nM: IC50 (second compound 0.0949 µM)

CCN1CCN(Cc2ccc(Nc3ncc(F)c(-c4cc(F)c5nc(C)n(C(C)C)c5c4)n3)nc2)CC1 + CCn1c(-c2cccnc2C(C)OC)c2c3cc(ccc31)N1CCOC(CC(NC(=O)C(C(C)C)N(C)C(=O)C3(F)CCN(C(=O)C#CC(C)(C)N(C)C)CC3)C(=O)N3CCCC(N3)C(=O)OCC(C)(C)C2)C1
520 nM: IC50 (second compound 0.03 µM)
641 nM: IC50 (second compound 0.0949 µM)
inactive: viability, T/C [1] 105% | viability, T/C [2] 104% | viability, T/C [3] 99.5% | viability, T/C [4] 82.7% | viability, T/C [25] 52.9% | viability, T/C [26] 52.1% | viability, T/C [5] 108% | viability, T/C [6] 99.6% | viability, T/C [7] 96.1% | viability, T/C [8] 84.2% | viability, T/C [29] 57.6% | viability, T/C [30] 43.1% | viability, T/C [9] 105% | viability, T/C [10] 106% | viability, T/C [11] 96.6% | viability, T/C [12] 85.6% | viability, T/C [33] 52.4% | viability, T/C [34] 45.4% | viability, T/C [13] 103% | viability, T/C [14] 97.2% | viability, T/C [15] 92.5% | viability, T/C [16] 77.7% | viability, T/C [37] 52.3% | viability, T/C [38] 45.5% | viability, T/C [17] 99.8% | viability, T/C [18] 90.6% | viability, T/C [19] 88% | viability, T/C [20] 73.1% | viability, T/C [41] 55.7% | viability, T/C [42] 46.2% | viability, T/C [21] 91.4% | viability, T/C [22] 89.2% | viability, T/C [23] 83.4% | viability, T/C [24] 70.5% | viability, T/C [45] 49.9% | viability, T/C [46] 53.3%
510 nM: IC50 (second compound 0.00949 µM)
600 nM: IC50 (second compound 0.003 µM)
> 1000 nM: IC50 (second compound 0.000949 µM) | IC50 (second compound 0.3 µM)

C[C@@H](NC(=O)c1ncnc(N)c1Cl)c1ncc(C(=O)Nc2cc(C(F)(F)F)c(Cl)cn2)s1 + CCn1c(-c2cccnc2C(C)OC)c2c3cc(ccc31)N1CCOC(CC(NC(=O)C(C(C)C)N(C)C(=O)C3(F)CCN(C(=O)C#CC(C)(C)N(C)C)CC3)C(=O)N3CCCC(N3)C(=O)OCC(C)(C)C2)C1
> 10000 nM: IC50 (second compound 0.03 µM) | IC50 (second compound 0.0949 µM) | IC50 (second compound 0.3 µM)
9630 nM: IC50 (second compound 0.00949 µM)
8890 nM: IC50 (second compound 0.003 µM)
9800 nM: IC50 (second compound 0.000949 µM)
inactive: viability, T/C [3] 117% | viability, T/C [4] 129% | viability, T/C [25] 141% | viability, T/C [26] 141% | viability, T/C [27] 120% | viability, T/C [28] 48.9% | viability, T/C [7] 122% | viability, T/C [8] 125% | viability, T/C [29] 137% | viability, T/C [30] 150% | viability, T/C [31] 119% | viability, T/C [32] 42.2% | viability, T/C [11] 125% | viability, T/C [12] 127% | viability, T/C [33] 140% | viability, T/C [34] 139% | viability, T/C [35] 120% | viability, T/C [36] 47.1% | viability, T/C [15] 121% | viability, T/C [16] 132% | viability, T/C [37] 139% | viability, T/C [38] 141% | viability, T/C [39] 130% | viability, T/C [40] 52.5% | viability, T/C [19] 114% | viability, T/C [20] 127% | viability, T/C [41] 135% | viability, T/C [42] 138% | viability, T/C [43] 120% | viability, T/C [44] 51.6% | viability, T/C [23] 108% | viability, T/C [24] 118% | viability, T/C [45] 127% | viability, T/C [46] 134% | viability, T/C [47] 117% | viability, T/C [48] 54%
